Target: T1, renin (Homo sapiens, UniProt P00797)
T1 sequence (P00797 67-406): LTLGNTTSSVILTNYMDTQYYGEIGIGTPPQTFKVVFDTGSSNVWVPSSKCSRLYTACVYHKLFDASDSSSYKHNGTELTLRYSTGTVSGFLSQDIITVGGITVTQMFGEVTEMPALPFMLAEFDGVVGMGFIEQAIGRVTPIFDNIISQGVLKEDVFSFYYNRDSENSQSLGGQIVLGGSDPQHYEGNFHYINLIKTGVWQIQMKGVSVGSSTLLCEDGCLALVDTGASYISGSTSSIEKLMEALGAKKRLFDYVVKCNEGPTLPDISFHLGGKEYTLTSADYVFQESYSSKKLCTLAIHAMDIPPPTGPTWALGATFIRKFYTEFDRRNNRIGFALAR
Experiment: in vitro renin inhibitory activity, radioimmunoassay for angiotensin I
Type: biochemical
Conditions: renin incubated two hours at 37° with substrate angiotensinogen; angiotensin I by radioimmunoassay; molar concentration causing 50% inhibition
Protocol: The effectiveness of the aforementioned compounds is determined by a test for in vitro renin inhibitory activity. This activity is determined by a standard radioimmunoassay for angiotensin I. In this assay the enzyme, renin, incubated for two hours at 37° in the presence of a substrate, angiotensinogen, generates the product, angiotensin I. Test compounds are added to the incubation mixture. Relative activity is reported as the IC50, which is the molar concentration of test compound causing a 50% inhibition of the renin activity.

Row | IC50 [nM] | Compound
1 | 7 | C=CC[C@H](NC(=O)[C@H](Cc1ccccc1)NS(=O)(=O)N(C)C)C(=O)N[C@@H](CC(C)C)[C@@H](O)CC(=O)NCC(C)CC (stereo partly drawn) [MeNSO2 PHEALGSTANHCH2 CH(CH3)CH2 CH3, Me2 NSO2 --PHE--ALG--STA--NHCH2 CH(CH3)CH2 CH3]
2 | 41 | CCC(C)CNC(=O)CC(O)C(CC(C)C)NC(=O)C(Cc1cnc[nH]1)NC(=O)C(Cc1ccccc1)NS(=O)(=O)N(C)C (stereo not drawn) [Me2 NSO2 PHEHISSTANHCH2 CH(CH3)CH2 CH3, Me2 NSO2 --PHE--HIS--STA--NHCH2 CH(CH3)CH2 CH3]
3 | 1.5 | MeNSO2 PHEALGCYSTANHCH2 CH(CH3)CH2 CH3
4 | ~3000 | CCC(C)CNC(=O)CC(O)C(CC(C)C)NC(=O)C(Cc1cnc[nH]1)NC(=O)C(Cc1ccc(OC)cc1)NS(=O)(=O)N(C)C (stereo not drawn) [Me2 NSO2 TYR(OMe)HISSTANHCH2 CH(CH3)CH2 CH3]
5 | 1.1 | MeNSO2 PHEPGYCYSTANHCH2 CH(CH3)CH2 CH3
6 | 34 | Me2 NSO2 --PHE--PGY--STA--NHCH2 CH(CH3)CH2 CH3 [Me2 NSO2 PHEPGYSTANHCH2 CH(CH3)CH2 CH3]
